Values quoted from earlier work in patent US9156886B2, “Cyclosporin analogues for preventing or treating hepatitis C infection” (priority 2009, dated 2015).

Columns and labels:
hepatitis C virus = details: published results, Antiviral Research 65(3):A41 (2005)
cyclophilin A = cyclophilin A (Homo sapiens, UniProt P62937)
cyclophilin A, sequence (P62937 whole entry, species assumed): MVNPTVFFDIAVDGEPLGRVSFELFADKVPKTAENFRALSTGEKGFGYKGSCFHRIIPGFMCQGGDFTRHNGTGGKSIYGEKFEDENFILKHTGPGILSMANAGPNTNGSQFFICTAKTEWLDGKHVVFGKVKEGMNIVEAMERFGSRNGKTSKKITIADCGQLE

C/C=C/C[C@@H](C)[C@@H](O)[C@H]1C(=O)N[C@@H](CC)C(=O)N(C)[C@H](C)C(=O)N(CC)[C@@H](C(C)C)C(=O)N[C@@H](C(C)C)C(=O)N(C)[C@@H](CC(C)C)C(=O)N[C@@H](C)C(=O)N[C@H](C)C(=O)N(C)[C@@H](CC(C)C)C(=O)N(C)[C@@H](CC(C)C)C(=O)N(C)[C@@H](C(C)C)C(=O)N1C [DEBIO-025]
inhibition of hepatitis C virus replication (hepatitis C virus): potent and selective inhibition | binding affinity for cyclophilin A (cyclophilin A): potent binding affinity
